# Entries after “also recorded” stand apart in the source; their conditions may differ.
# What was measured:
# Type in all cases: in vivo
# [1] = system: Hartley guinea pigs; test: Preventive effect on fingolimod-induced bradyarrhythmia in isoflurane-anesthetized guinea pig model
# Experimental: A solvent or compound (I) (free form) was administered by oral gavage at a dose of 1, 3, or 10 mg/kg (volume: 5 mL/kg) to Hartley guinea pigs (7 to 10 weeks old, male, available from Japan SLC, Inc.). After completion of the administration, each animal was subjected to anesthetic induction by inhalation of isoflurane (available from Pfizer Japan Inc.), and the animal was held on an operating table having a heater function. The trachea was incised, and a tracheal cannula (KN-375, available from Natsume Seisakusho Co., Ltd.) was inserted. The tracheal cannula was connected to a ventilator (SN-480-7, available from Shinano Seisakusho Co., Ltd.), and artificial respiration was controlled by supplying 100% oxygen at a volume of 10 mL and a ventilation rate of 60 times/minute. The solvent used was 0.5 w/v % methyl cellulose 400 solution (available from FUJIFILM Wako Pure Chemical Corporation). Isoflurane (available from Pfizer Japan Inc.) anesthesia (about 1 to 4%, carrier gas: 100% oxygen) was used for maintenance of anesthesia. A catheter (BD intramedic polyethylene tubing PE50, available from Becton, Dickinson and Company) charged with 50 units/mL heparin (available from AY PHARMACEUTICALS CO., LTD.) was inserted into each of the carotid artery and the jugular vein and placed in the blood vessel. Systemic blood pressure was measured with a high-sensitivity DC amplifier (AD-611J, available from NIHON KOHDEN CORPORATION) via the catheter placed in the carotid artery. Electrodes were attached to the body surface, and a body surface electrocardiogram was measured with a high-sensitivity amplifier (AB-611J, available from NIHON KOHDEN CORPORATION). Blood pressure and electrocardiogram data were acquired and analyzed with PowerLab/Labchart system (available from ADInstruments). Analysis items are systolic blood pressure, diastolic blood pressure, average blood pressure, heart rate, P-wave width, PR interval, QRS width, QT interval, and corrected QT interval. Corrected QT interval was calculated using the fridericia formula (QTc=QT interval/RR interval^1/3). After stabilization of each parameter, fingolimod hydrochloride (synthesized with reference to WO 2000/027798) was continuously administered intravenously at 0.1 mg/kg for 10 minutes via the catheter placed in the jugular vein, followed by observation of the presence or absence of the onset of bradyarrhythmia for 60 minutes. The solvent used was saline (available from Otsuka Pharmaceutical Factory, Inc.). Data were recorded and blood was collected 5, 10, 15, 20, 30, and 60 minutes after initiation of administration of fingolimod hydrochloride. The observation was terminated 60 minutes after initiation of the administration, and the animal was euthanized by exsanguination or intravenous administration of a large amount of pentobarbital or saturated potassium chloride solution under isoflurane anesthesia. Data were analyzed for atrial beating rate over time, ventricular beating rate over time, electrocardiographic parameters, the presence or absence of the onset of atrioventricular block, and plasma concentrations of compound (I), fingolimod, and fingolimod phosphorylated form. The plasma was collected by centrifuging the blood and cryopreserved at about −20° C. After thawing of the plasma, plasma drug concentrations were measured using LC/MS/MS after deproteinization with acetonitrile.
# Atrioventricular block was defined as follows.
# Second-degree atrioventricular block: atrial activation wave (P wave) is normal, which is followed by or not followed by ventricular activation wave (QRS wave).
# Third-degree atrioventricular block: there is no electrical conduction between the atrium and the ventricle, and atrial and ventricular activation waves are generated independently, resulting in atrioventricular dissociation.
# In FIG. 1, the measurements are shown as mean±standard error. […]
# [2] = system: Wistar rats; test: Therapeutic effect on propranolol-induced bradyarrhythmia in conscious rat (telemetry); settings: compound (I) dihydrochloride 1 mg/kg i.p. about 30 min after propranolol 1 mg/kg i.p.; awake rats; FIG. 8
# Text: Wistar rats (10 weeks old, male, available from Kiwa Laboratory Animals Co., Ltd.) were anesthetized by inhalation of Sevofrane (available from Maruishi Pharmaceutical Co., Ltd.) and held on an operating table. An implantable telemetry transmitter ETA-F10 (DSI) was placed subcutaneously in each rat, and one lead was fixed to each of the upper right chest and the left lower chest. After being fully awakened, the rat was placed in a cage on the receiving board, and a body surface electrocardiogram was measured with a high-sensitivity amplifier. Electrocardiogram data were acquired and analyzed with LabChart Pro & LabChart module (available from Bio Research Center Co., Ltd.). After stabilization of the heart rate, propranolol (Inderal Injection, available from AstraZeneca K.K.) was administered by intraperitoneal injection at a dose of 1 mg/kg. After the elapse of about 30 minutes, the stabilization of the heart rate was determined, and then saline or compound (I) dihydrochloride was administered by intraperitoneal injection at a dose of 1 mg/kg. Thirty minutes after the administration, the heart rate in a stable state was measured for evaluation. The solvent used was saline (available from Otsuka Pharmaceutical Factory, Inc.). […]
# [3] = system: beagle dog; test: Therapeutic effect on propranolol-induced bradycardia in conscious beagle dog; settings: compound (I) dihydrochloride 0.01, 0.1, 1 mg/kg bolus i.v., FIG. 9
# Experimental: A peripheral venous path was secured with an 18 G needle in the right forelimb of a beagle dog (body weight: about 10 kg, female, available from Oriental Yeast Co., Ltd.), and then held on an operating table. Heart rate was monitored with an electrocardiographic monitor worn on the animal. A manchette was worn on the left forelimb, and blood pressure was measured with an Omron automatic electronic sphygmomanometer. The left ventricular function was measured by the M-mode method using the echocardiographic left parasternal short-axis two-chamber view. After stabilization of the heart rate, propranolol (Inderal Injection, available from AstraZeneca K.K.) was administered by bolus intravenous injection at a dose of 2 mg/kg, followed by continuous intravenous injection at a dose of 1 mg/minute with a syringe pump. After the elapse of about 30 minutes, the stabilization of the heart rate was determined, and then saline and compound (I) dihydrochloride (0.01 mg/kg, 0.1 mg/kg, 1 mg/kg) were administered by bolus intravenous injection at 10-minute intervals. About 10 minutes after each administration, heart rate, blood pressure, and left ventricular function were measured and evaluated in a stable state. The solvent used was saline (available from Otsuka Pharmaceutical Factory, Inc.).
structure (smiles),measurement,setting,value
"Cc1cc(CO)nc2cc3c(cc12)OC(C)(C)[C@H](O)[C@H]3NCCc1ccccc1 [Compound (I), (3R,4S)-7-Hydroxymethyl-2,2,9-trimethyl-4-(phenethylamino)-3,4-dihydro-2H-pyrano[2,3-g]quinoline-3-ol]",cases in which fingolimod-induced atrioventricular block was not observed,"[1]; 1 mg/kg oral gavage, four cases per group",75%
same,fingolimod-induced bradycardia (ventricular beating rate),"[1]; 3 mg/kg oral gavage, fingolimod hydrochloride 0.1 mg/kg i.v.",almost restored
same,cases in which fingolimod-induced atrioventricular block was not observed,"[1]; 3 mg/kg oral gavage, four cases per group",75%
same,fingolimod-induced bradycardia (ventricular beating rate / heart rate),"[1]; 10 mg/kg oral gavage, fingolimod hydrochloride 0.1 mg/kg i.v.",completely restored; also recorded: completely resolved
same,cases in which fingolimod-induced atrioventricular block was suppressed,"[1]; 10 mg/kg oral gavage, four cases per group",100%
same,onset of fingolimod-induced bradyarrhythmia (atrioventricular block),"[1]; 1, 3, 10 mg/kg oral gavage, FIG. 1 and FIG. 2",prevented the onset of fingolimod-induced bradyarrhythmia (atrioventricular block) in a dose-dependent manner
same,fingolimod-induced bradycardia (ventricular beating rate / heart rate),"[1]; compound (I) 1, 3, 10 mg/kg oral gavage before fingolimod hydrochloride 0.1 mg/kg i.v. over 10 min, FIG. 1",improved in a dose-dependent manner; also recorded: prevented a reduction in heart rate
same,fingolimod-induced prolongation of QT time,[1]; compound (I) oral gavage 1-10 mg/kg,almost completely suppressed
same,propranolol-induced bradycardia (heart rate),[2],improved bradycardia
same,effect on cardiac contraction inhibitory action of propranolol (left ventricular ejection fraction),[3],did not affect
same,propranolol-induced bradycardia (heart rate),[3]; propranolol 2 mg/kg bolus then 1 mg/minute i.v.,improved bradycardia
